Patent publication US5383848A, “Iontophoretic administration of drugs” (Gensia, Inc., priority 1991, dated 1995)
“Also recorded” adds a separate entry of the source.

Test system: elevated heart rate
Assay: In vivo dog experiments: heart rate offset after iontophoretic ESA drug with pretreatment (Example A)
Set-up: species or system labrador dogs
Details: for Offset Slope Component (0-5) min: 0-5 min after heart rate begins to decline; for Offset Slope Component (5-10) min: 5-10 min after decline begins; for Offset Slope Component (10-30) min: 10-30 min after decline begins; for Change in Heart Rate (peak minus baseline) / Peak Heart Rate: Table II; for Total time (startup) thru offset plateau: w/in 20 bpm of baseline / Total time (startup) thru offset plateau: in words / t 1/2 of elevated heart rate decay / Total time (startup) thru offset plateau: w/in 10 bpm of baseline: Table IV; for Onset Slope: baseline at onset time to peak heart rate; for Offset time: drug delivery stopped until within 20 bpm of baseline; for Offset Slope: drug shut-off to 20 bpm above baseline; for Delay: drug shut-off to start of heart rate decline; for t 1/2 of elevated heart rate decay: exponential fit; for Reduction in offset time: iontophoretic pre-delivery; for Onset time: start of delivery to start of increase in heart rate; for Time Start Decline: time when elevated heart rate began to decline

COC(=O)c1cccnc1 [Methyl Nicotinate, methyl ester of nicotinic acid]
Offset Slope Component (0-5) min (listed as 9): -2.40 beats per minute per minute
Offset Slope Component (0-5) min (listed as 10): -1.40 beats per minute per minute
Offset Slope Component (5-10) min (listed as 9): -0.40 beats per minute per minute
Offset Slope Component (5-10) min (listed as 10): -2.40 beats per minute per minute
Offset Slope Component (10-30) min (listed as 9): -0.28 beats per minute per minute
Offset Slope Component (10-30) min (listed as 10): -1.90 beats per minute per minute
Change in Heart Rate (peak minus baseline) (listed as 9): 55 bpm
Peak Heart Rate (listed as 9): 117 bpm
Change in Heart Rate (peak minus baseline) (listed as 10): 81 bpm
Peak Heart Rate (listed as 10): 152 bpm
Total time (startup) thru offset plateau: w/in 20 bpm of baseline: 55 min
Total time (startup) thru offset plateau: in words (listed as 9): Never Reached w/in 20 bpm of baseline
Total time (startup) thru offset plateau: in words (listed as 10): never lower
Onset Slope (listed as 9): 4.20 beats per minute per minute
Onset Slope (listed as 10): 12.30 beats per minute per minute
Offset time (listed as 9): 29.00 min
Offset time (listed as 10): 31.00 min
Offset Slope (listed as 9): -0.40 beats per minute per minute
Offset Slope (listed as 10): -1.70 beats per minute per minute
Delay (listed as 9): 6.50 min
Delay (listed as 10): 2.50 min
t 1/2 of elevated heart rate decay: 21.36 min
Reduction in offset time: also reduce offset time
Onset time (listed as 9): 15.00 min
Onset time (listed as 10): 7.00 min
Time Start Decline (listed as 9): 25.00 min
Time Start Decline (listed as 10): 20.50 min

CC(COc1ccccc1)N(CCCl)Cc1ccccc1 (stereo not drawn) [Phenoxybenzamine]
Offset Slope Component (0-5) min (listed as 18): -4.20 beats per minute per minute
Offset Slope Component (0-5) min (listed as 19): -4.90 beats per minute per minute
Offset Slope Component (5-10) min (listed as 18): 0.02 beats per minute per minute
Offset Slope Component (5-10) min (listed as 19): -2.00 beats per minute per minute
Offset Slope Component (10-30) min (listed as 18): -0.53 beats per minute per minute
Offset Slope Component (10-30) min (listed as 19): -1.80 beats per minute per minute
Change in Heart Rate (peak minus baseline) (listed as 18): 57 bpm
Peak Heart Rate (listed as 18): 117 bpm
Change in Heart Rate (peak minus baseline) (listed as 19): 79 bpm
Peak Heart Rate (listed as 19): 149 bpm
Total time (startup) thru offset plateau: w/in 10 bpm of baseline (listed as 18): 60 min
Total time (startup) thru offset plateau: w/in 10 bpm of baseline (listed as 19): 48 min
Onset Slope (listed as 18): 3.70 beats per minute per minute
Onset Slope (listed as 19): 13.90 beats per minute per minute
Offset time (listed as 18): 30.00 min
Offset time (listed as 19): 25.80 min
Offset Slope (listed as 18): -0.80 beats per minute per minute
Offset Slope (listed as 19): -2.30 beats per minute per minute
Delay (listed as 18): 10.00 min
Delay (listed as 19): 3.50 min
t 1/2 of elevated heart rate decay (listed as 18): 16.96 min
t 1/2 of elevated heart rate decay (listed as 19): 11.52 min
Reduction in offset time: found effective when pre-delivered iontophoretically; also recorded: also reduce offset time
Onset time (listed as 18): 18.00 min
Onset time (listed as 19): 7.40 min
Time Start Decline (listed as 18): 28.00 min
Time Start Decline (listed as 19): 22.00 min

Cc1ccc(N(CC2=NCCN2)c2cccc(O)c2)cc1 [Phentolamine]
Reduction in offset time: found effective when pre-delivered iontophoretically

CC[C@@H]1C(=O)OC[C@@H]1Cc1cncn1C [Pilocarpine]
Offset Slope Component (0-5) min (listed as 7): -1.70 beats per minute per minute
Offset Slope Component (0-5) min (listed as 8): -7.60 beats per minute per minute
Offset Slope Component (5-10) min (listed as 7): -2.50 beats per minute per minute
Offset Slope Component (5-10) min (listed as 8): -1.40 beats per minute per minute
Percent decline in heart rate, ranking (5-10 minute interval, FIG. 1): next highest percent declines
Offset Slope Component (10-30) min (listed as 7): -1.10 beats per minute per minute
Offset Slope Component (10-30) min (listed as 8): -1.00 beats per minute per minute
Delay to onset of heart rate decline, ranking (FIG. 2): shortest delay
Change in Heart Rate (peak minus baseline) (listed as 7): 73 bpm
Peak Heart Rate (listed as 7): 133 bpm
Change in Heart Rate (peak minus baseline) (listed as 8): 114 bpm
Peak Heart Rate (listed as 8): 191 bpm
Total time (startup) thru offset plateau: in words: Never reached w/in 20 bpm of baseline
Total time (startup) thru offset plateau: w/in 20 bpm of baseline: 60 min
Onset Slope (listed as 7): 11.60 beats per minute per minute
Onset Slope (listed as 8): 11.20 beats per minute per minute
Offset time (listed as 7): 38.00 min
Offset time (listed as 8): 36.00 min
Offset Slope (listed as 7): -1.10 beats per minute per minute
Offset Slope (listed as 8): -1.70 beats per minute per minute
Delay (listed as 7): 1.30 min
Delay (listed as 8): 5.30 min
t 1/2 of elevated heart rate decay (listed as 7): 28.85 min
t 1/2 of elevated heart rate decay (listed as 8): 21.36 min
Reduction in offset time: also reduce offset time
Onset time (listed as 7): 6.70 min
Onset time (listed as 8): 13.00 min
Time Start Decline (listed as 7): 23.80 min
Time Start Decline (listed as 8): 24.30 min
